Assay results taken from patent publication US7235572B2, “Thiazolyl-indole derivatives, their manufacture and use as pharmaceutical agents” (Hoffman-La Roche Inc., priority 2003, dated 2007).

Legend:
PPARγ = target: T1, PPARγ (Mus musculus, UniProt P37238); assay: PPARγ radioligand binding assay (scintillation proximity, GST-PPARγ-LBD); details: SPA radioligand binding
T1 construct: PPARγ (aa 174 to 476); made in house; host or cells: E. coli BL21 (pLysS)
T1 sequence (P37238 204-505): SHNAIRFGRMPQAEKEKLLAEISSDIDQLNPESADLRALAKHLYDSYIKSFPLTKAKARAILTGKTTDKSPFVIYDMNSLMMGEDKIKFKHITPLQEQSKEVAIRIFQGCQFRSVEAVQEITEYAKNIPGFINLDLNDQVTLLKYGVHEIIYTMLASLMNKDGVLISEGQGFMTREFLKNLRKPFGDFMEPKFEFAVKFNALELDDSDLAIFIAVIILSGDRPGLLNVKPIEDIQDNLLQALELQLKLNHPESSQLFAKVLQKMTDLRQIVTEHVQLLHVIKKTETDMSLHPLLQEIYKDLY
Description: (§1) Background information on the performed assays can be found in: Nichols J S et al. “Development of a scintillation proximity assay for peroxisome proliferator-activated receptor gamma ligand binding domain”, (1998) Anal. Biochem. 257: 112–119.
(§2) Full-length cDNA clones for humans PPARδ and PPARα and mouse PPARγ were obtained by RT-PCR from human adipose and mouse liver cRNA, respectively, cloned into plasmid vectors and verified by DNA sequencing. Bacterial and mammalian expression vectors were constructed to produce glutathione-s-transferase (GST) and Gal4 DNA binding domain proteins fused to the ligand binding domains (LBD) of PPARδ (aa 139 to 442), PPARγ (aa 174 to 476) and PPARα (aa 167 to 469). To accomplish this, the portions of the cloned sequences encoding the LBDs were amplified from the full-length clones by PCR and then subcloned into the plasmid vectors. Final clones were verified by DNA sequence analysis. […]
(§3) PPARγ receptor binding was assayed in TKE50 (50 mM Tris-HCl, pH 8, 50 mM KCl, 2 mM EDTA, 0.1 mg/ml fatty acid-free BSA and 10 mM DTT). […] All binding assays were performed in 96 well plates and the amount of bound ligand measured on a Packard TopCount using OptiPlates (Packard). Nonspecific binding was determined in the presence of 10^−4 M unlabelled compound. […]

PPARδ = target: T2, PPARδ (Homo sapiens, UniProt Q03181); assay: PPARδ radioligand binding assay (scintillation proximity, GST-PPARδ-LBD); details: SPA radioligand binding
T2 construct: PPARδ (aa 139 to 442); made in house; host or cells: E. coli BL21 (pLysS)
T2 sequence (Q03181 139-441 limits assumed): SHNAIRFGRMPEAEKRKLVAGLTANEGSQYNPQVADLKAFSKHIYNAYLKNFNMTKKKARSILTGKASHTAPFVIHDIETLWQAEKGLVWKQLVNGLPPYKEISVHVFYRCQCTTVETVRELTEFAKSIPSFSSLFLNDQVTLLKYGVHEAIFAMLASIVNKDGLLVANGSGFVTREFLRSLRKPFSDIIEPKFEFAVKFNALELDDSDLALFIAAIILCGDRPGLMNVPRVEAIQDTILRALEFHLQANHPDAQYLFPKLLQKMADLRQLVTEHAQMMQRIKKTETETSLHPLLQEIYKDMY
Description: as §1, §2
PPARδ receptor binding was assayed in HNM10 (50 mM Hepes, pH 7.4, 10 mM NaCl, 5 mM MgCl2, 0.15 mg/ml fatty acid-free BSA and 15 mM DTT). […] Radioligand was added and the reaction incubated at RT for 1 h and scintillation proximity counting performed in the presence of test compounds was determined. All binding assays were performed in 96 well plates and the amount of bound ligand was measured on a Packard TopCount using OptiPlates (Packard). […]

PPARα = target: T3, PPARα (Homo sapiens, UniProt Q07869); assay: PPARα radioligand binding assay (scintillation proximity, GST-PPARα-LBD); details: SPA radioligand binding
T3 construct: PPARα (aa 167 to 469); made in house; host or cells: E. coli BL21 (pLysS)
T3 sequence (Q07869 167-468 limits assumed): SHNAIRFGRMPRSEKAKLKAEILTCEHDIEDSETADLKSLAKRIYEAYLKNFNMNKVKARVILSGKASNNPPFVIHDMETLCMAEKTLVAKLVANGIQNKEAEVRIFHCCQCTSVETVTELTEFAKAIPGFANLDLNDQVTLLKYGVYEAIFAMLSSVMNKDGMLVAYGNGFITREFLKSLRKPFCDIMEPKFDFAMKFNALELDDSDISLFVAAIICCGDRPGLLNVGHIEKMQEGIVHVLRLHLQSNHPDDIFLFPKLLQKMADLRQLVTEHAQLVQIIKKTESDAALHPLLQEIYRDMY
Description: as §1, §2
as §3, with “PPARα” for “PPARγ”

| SMILES | IC50 (PPARγ) | IC50 (PPARδ) | IC50 (PPARα) | melting point |
| --- | --- | --- | --- | --- |
| Cc1nc(-c2ccc(C(F)(F)F)cc2)sc1CCCOc1cccc2c1ccn2CC(=O)O [Example 8, (4-{3-[4-methyl-2-(4-trifluoromethyl-phenyl)-thiazol-5-yl]-propoxy}-indol-1-yl)-acetic acid] | ≥ 10000 nM | 42 nM | 227 nM | – |
| Cc1nc(-c2ccc(C(F)(F)F)cc2)sc1COc1ccc2c(c1)cc(C)n2CC(=O)O [Example 32, {2-methyl-5-[4-methyl-2-(4-trifluoromethyl-phenyl)-thiazol-5-ylmethoxy]-indol-1-yl}-acetic acid] | – | – | – | 187 to 188 °C (dec.) |
| Cc1nc(-c2ccc(C(F)(F)F)cc2)sc1C(C)Oc1ccc2ccn(CC(=O)O)c2c1 (racemic) [Example 2, [rac]-(6-{1-[4-methyl-2-(4-trifluoromethyl-phenyl)-thiazol-5-yl]-ethoxy}-indol-1-yl)-acetic acid] | ≥ 10000 nM | 24 nM | 2230 nM | – |
